According to US20090298859A1, “METHOD FOR TREATING PLANTS” (SYNGENTA CROP PROTECTION, INC., priority 2006, published 2009):
Values joined by “and” are separate entries in the source; they are usually repeats but may differ in a detail not shown here. Equal values may be shown once.

Columns and labels:
Assay type in all cases: in vivo
[1] = system: Tea plants (Japanese green tea, Yabukita); assay: Polyphenol content of tea leaves after pre-harvest spraying; set-up: Total catechin (g): unit not given here; conditions: autumn; for Total catechin (%) when compared to untreated / % compared to untreated (total catechin): untreated = 100%
Description: Tea plants (Japanese green tea, Yabukita) were grown in 5 m^2 plots, and the leaves were harvested. The harvested leaves were tested for polyphenols. Fourteen days before harvest, the tea plants were sprayed with a commercial formulation of emamectin benzoate (Affirm™), difenoconazole (Score™), methidathion (Supracid™), azoxystrobin (Amistar™) or a mixture of lufenuron and thiamethoxam. An otherwise identical set of tea plants were left untreated.
The experiment was repeated using either azoxystrobin or trifloxystrobin.
Both trials detailed above were carried out in the autumn. […] It is proposed that, when photosynthesis is active (e.g. in the summer season), addition of azoxystrobin may not enhance photosynthesis further and thus may not be able to further raise catechin levels.

[2] = system: Carrot plants; assay: β-carotene content of harvested carrots after azoxystrobin spraying; conditions: conventional treatment plus Amistar Opti (azoxystrobin and chlorothalonil)
Description: Carrot plants were grown and the carrots were harvested after spraying twice with a conventional fungicide treatment (chlorothalonil, copper hydroxide, iminoctazine polyoxin and tolclofos-methyl) and with the conventional treatment plus Amistar Opti™ (azoxystrobin and chlorothalonil). Some of the harvested carrots were analysed immediately on harvest for β-carotene while others were stored for a week after harvest before analysis. […] It seems therefore that azoxystrobin has a clear effect on β-carotene levels in mature carrots.

[3] = system: soybean; assay: Isoflavone levels in soybean after azoxystrobin treatment
Description: (§1) Similar work was carried out to look at isoflavone levels in soybean and anthocyanin levels in eggplant and strawberry on treatment of the plants with azoxystrobin. […] In addition, it also raised anthocyanin levels in strawberry by 50% (control: 200-220 mg anthocyanin/100 g strawberry; azoxystrobin treated: 210-420 mg anthocyanin/100 g strawberry), although it seemed to have no effect on anthocyanin levels in egg plant.

[4] = system: eggplant; assay: Anthocyanin levels in eggplant after azoxystrobin treatment; conditions: egg plant
Description: as §1

[5] = system: strawberry; assay: Anthocyanin levels in strawberry after azoxystrobin treatment
Description: as §1

[6] = system: Tomato plants (Variety: Sunroad); assay: Lycopene content of harvested tomatoes after azoxystrobin spraying; conditions: for lycopene content, single replicate: stored at room temperature, listed as Az-treated; for lycopene content, single replicate / lycopene content, mean of 3 replicates: conventional fungicide treatment plus azoxystrobin
Description: Tomato plants (Variety: Sunroad) were grown and the tomatoes were harvested after spraying with a conventional fungicide treatment and with the conventional treatment plus azoxystrobin. The harvested tomatoes were stored at room temperature and tested for lycopene concentration 2, 5, 9 and 12 days after sample harvesting (three tomatoes were chosen at random from each box on each day of testing).
When this study was repeated using similar conditions but on a smaller scale, a marked rise in lycopene content was not observed (control: 11.7 mg lycopene/100 g tomato; azoxystrobin treated: 10.7 mg lycopene/100 g tomato).

[7] = Table 1 trial, commercial formulation sprayed 14 days before harvest
[8] = 12 days after sample harvesting

Compound	Epicatechin [1, 7]	Epicatechin gallate [1, 7]	Epigalocatechin [1, 7]	Epigalocatechin gallate [1, 7]	Total catechin (%) when compared to untreated ([1]; Table 1 trial) [%]	Epicatechin ([1]; Table 2 repeat trial)	Epicatechin gallate ([1]; Table 2 repeat trial)	Epigalocatechin ([1]; Table 2 repeat trial)	Epigalocatechin gallate ([1]; Table 2 repeat trial)	Total catechin ([1]; Table 2 repeat trial)	% compared to untreated (total catechin) ([1]; Table 2 repeat trial) [%]	also measured
COc1nn(CSP(=S)(OC)OC)c(=O)s1 [MTH, methidathion]	1100 mg polyphenol/100 g tea leaves	1100 mg polyphenol/100 g tea leaves	4500 mg polyphenol/100 g tea leaves	5700 mg polyphenol/100 g tea leaves	109	–	–	–	–	–	–	–
CO/C=C(/C(=O)OC)c1ccccc1Oc1cc(Oc2ccccc2C#N)ncn1 [Azoxystrobin, azoxystrobin]	930 mg polyphenol/100 g tea leaves	960 mg polyphenol/100 g tea leaves	4800 mg polyphenol/100 g tea leaves	6200 mg polyphenol/100 g tea leaves	113	24.5 mg polyphenol/g tea leaves	31.1 mg polyphenol/g tea leaves	178.8 mg polyphenol/g tea leaves	160.6 mg polyphenol/g tea leaves	395.0 mg polyphenol/g tea leaves	107	β-carotene levels compared with conventional fungicide regime ([2]; carrots analysed immediately on harvest, sprayed twice): did not show an increase; β-carotene content ([2]; carrots stored for one week after harvest, conventional treatment 6.59): 7.48 mg β-carotene/100 g carrot; isoflavone content ([3]; control 120): 130 mg isoflavone/100 g soybean; increase of isoflavone levels ([3]; soybean, versus control): 8%; effect on anthocyanin levels [4]: no effect; anthocyanin content ([5]; control 200-220): 210-420 mg anthocyanin/100 g strawberry; rise of anthocyanin levels ([5]; strawberry, versus control): 50%; lycopene content, single replicate ([6]; 2 days after sample harvesting): 5.69 mg lycopene/100 g tomato and 5.67 mg lycopene/100 g tomato and 5.14 mg lycopene/100 g tomato; lycopene content, mean of 3 replicates ([6]; 2 days after sample harvesting): 5.50 mg lycopene/100 g tomato; lycopene content, single replicate ([6]; 5 days after sample harvesting): 8.36 mg lycopene/100 g tomato and 8.87 mg lycopene/100 g tomato and 6.01 mg lycopene/100 g tomato; lycopene content, mean of 3 replicates ([6]; 5 days after sample harvesting): 7.75 mg lycopene/100 g tomato; lycopene content, single replicate ([6]; 9 days after sample harvesting): 9.78 mg lycopene/100 g tomato and 9.14 mg lycopene/100 g tomato and 8.32 mg lycopene/100 g tomato; lycopene content, mean of 3 replicates ([6]; 9 days after sample harvesting): 9.08 mg lycopene/100 g tomato; lycopene content, single replicate [6, 8]: 8.27 mg lycopene/100 g tomato and 8.88 mg lycopene/100 g tomato and 9.24 mg lycopene/100 g tomato; lycopene content, mean of 3 replicates [6, 8]: 8.79 mg lycopene/100 g tomato; lycopene content ([6]; repeat study, similar conditions, smaller scale, control 11.7): 10.7 mg lycopene/100 g tomato
emamectin benzoate	960 mg polyphenol/100 g tea leaves	890 mg polyphenol/100 g tea leaves	4600 mg polyphenol/100 g tea leaves	5600 mg polyphenol/100 g tea leaves	106	–	–	–	–	–	–	Total catechin (g) ([1]; Table 1 trial, sprayed 14 days before harvest, table title: mg polyphenol/100 g tea leaves): 12050
CC1COC(Cn2cncn2)(c2ccc(Oc3ccc(Cl)cc3)cc2Cl)O1 (stereo not shown) [DFZ, difenoconazole]	950 mg polyphenol/100 g tea leaves	970 mg polyphenol/100 g tea leaves	4300 mg polyphenol/100 g tea leaves	5900 mg polyphenol/100 g tea leaves	106	–	–	–	–	–	–	–
CON=C(C(=O)OC)c1ccccc1CON=C(C)c1cccc(C(F)(F)F)c1 [Trifloxystrobin, trifloxystrobin]	–	–	–	–	–	23.8 mg polyphenol/g tea leaves	32.4 mg polyphenol/g tea leaves	190.1 mg polyphenol/g tea leaves	163.0 mg polyphenol/g tea leaves	409.3 mg polyphenol/g tea leaves	110	–
